The values below come from US20110173718A1, “HERBICIDE TOLERANT PLANTS” (SYNGENTA CROP PROTECTION, INC., priority 2008, published 2011).

Holding throughout (assay type): in vivo
Experiment [1] relates to tobacco plants expressing Pseudomonas fluorescens HPPD. Nature of the experiment: Glasshouse spray test, Pseudomonas HPPD transgenic tobacco. The settings on record: for % damage at 7 DAT: C2 line (Pseudomonas HPPD, T2), individual plants; for % damage observed 16 DAT: Pseudomonas HPPD T1. From the text:
Tobacco plants expressing the wild-type HPPD gene of Pseudomonas fluorescens strain 87-79 under operable control of the double enhanced 35S CMV promoter region, Nos3′ terminator and TMV translational enhancer were provided as detailed in Example 4 of WO0246387.
Seed of wild-type tobacco plants, C2 tobacco plants and of the T1 progeny of a further Arabidopsis-HST expressing tobacco line, D2 were planted out in 3 inch pots, grown on, sprayed with compounds 1.1, 2.30 and 3.6 at the rates shown in table 5. Percent damage scores were assessed at 7 DAT. Aside from the presumptive non-transgenic segregants the D2 line containing the Arabidopis HST expression construct offered the highest level of tolerance to the two HST herbicides with the Psuedomonas HPPD, C2 line, offering only marginal tolerance under the conditions of this test.
(§1) Transgenic lines of tobacco, soyabean and corn etc. can be engineered to express various heterologous HPPDs derived from, for example Avena (SEQ ID #26), Wheat (SEQ ID #27), Pseudomonas fluorescens (SEQ ID # 25) and Shewanella colwelliana (SEQ ID #28) as, for example, described in WO 02/46387.
Single copy events amongst the T1 plant lines are identified by their 3:1 segregation ratio (wrt kanamycin and or herbicide) and by quantitative RT-PCR. Seed from the thus selected T1 tobacco (var Samsun) lines are sown in 3 inch diameter pots containing 50% peat, 50% John Innes soil no 3. After growth to the 3 leaf stage, plants are sprayed, as described above, in order to test for herbicide tolerance relative to like-treated non-transgenic tobacco plants.
Control tobacco plants and transgenic T1 plants expressing either the Pseudomonas or the wheat HPPD gene are sprayed at 37, 111, 333 and 1000 g/ha rates of HST inhibitors and, for example, compound 2.3.
Plants are assessed and scored for % damage at 16 DAT.

In experiment [2] the test system is wild-type (WT) Samsun tobacco. In words: Glasshouse spray test, wild-type tobacco. To be noted: for % damage at 7 DAT: WT Samsun, individual plants; for % damage observed 16 DAT: w/t tobacco; for percent damage at 6 DAT / blch (% bleaching at the meristem relative to control plants) / ht (% height reduction relative to control plants): WT; for blch (% bleaching at the meristem relative to control plants) / ht (% height reduction relative to control plants): 100 g. In short, it runs like this:
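Wild-type Samsun tobacco grown from seed was planted in 3 inch pots, grown on under glasshouse conditions (about 24-27° C. day, 18-21° C. night, ~14 h photoperiod, ~65% humidity) and spray-treated alongside transgenic lines. Test chemicals were formulated in water with 0.2% X77 surfactant and applied by track sprayer at 200 l/ha. Height reduction, bleaching and damage were scored against unsprayed control plants of like size.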

In experiment [3] the test system is tobacco plants expressing Wheat HPPD. Nature of the experiment: Glasshouse spray test, wheat HPPD transgenic tobacco. The settings on record: for % damage observed 16 DAT: Wheat HPPD T1; for blch (% bleaching at the meristem relative to control plants) / ht (% height reduction relative to control plants): 100 g, individual T0 lines.
Source text: as §1
Single copy events amongst the T1 plant lines are identified by their 3:1 segregation ratio (wrt kanamycin and or herbicide) and by quantitative RT-PCR. Seed from the thus selected T1 tobacco (var Samsun) lines are sown in 3 inch diameter pots containing 50% peat, 50% John Innes soil no 3. After growth to the 3 leaf stage, plants are sprayed, as described above, in order to test for herbicide tolerance relative to like-treated non-transgenic tobacco plants. […]
Exactly as described in example 5 of WO 02/46387 the wheat HPPD gene sequence (Embl DD064495) is cloned behind an Arabidopsis Rubisco small subunit (SSU) promoter and in front of a nos gene terminator to produce an SSU Wheat HPPD nos expression cassette' which is cloned into a binary vector and transformed into tobacco to produce a population of 30-50 transgenic events.

Setting [4] is: WT tobacco, spray with 40 g of compound 1.1, 7 DAT.
Setting [5] is: WT tobacco, spray with 40 g of compound 1.1, 14 DAT.
Setting [6] is: 17 DAT, Chlamydomonas HST section.
[7] abbreviates: WT tobacco, spray with 500 g of compound 2.30, 7 DAT.
The mark [8] stands for this setting: WT tobacco, spray with 500 g of compound 2.30, 17 DAT.

Each structure is given as a SMILES string. Where “and” joins values, the source holds several entries; their conditions need not be identical. Equal values may be shown once.

`Oc1c(Cl)c(F)nc(F)c1Cl` [Compound 1.1, haloxydine]: the “% damage at 7 DAT” value in experiment [1] (25 gai/ha) and in experiment [2] (25 gai/ha) was 75% each time. For the same compound, in experiment [2] (250 g/ha, 8 DAT, w/t plants, 4-5 leaf), the “% damaged” value was 55% and 65%. For the same compound, in experiment [2] (250 g/ha, 25 DAT, w/t plants), the “% damage” value is reported as 50-70%. The “blch: % bleaching at the meristem relative to control plants” value in experiment [2] (setting [4]) is 70% and 65% and 60% and 75% and 80%; in experiment [2] (setting [5]), 40% and 70% and 60% and 75% and 65%. For the same compound, the “ht: % height reduction relative to control plants” value in experiment [2] (setting [4]) was 60% and 65% and 75% and 70%; in experiment [2] (setting [5]), 60% and 70% and 75% and 65%; in experiment [2] (WT tobacco, spray with 40 g of compound 1.1, 21 DAT) it was 70% and 80% and 85% and 60% and 55% and 65%.

In the case of `CS(=O)(=O)c1ccc(C(=O)C2C(=O)CCCC2=O)c([N+](=O)[O-])c1` [Mesotrione, mesotrione, reference compound], the “% damage observed 16 DAT” value is given as 3% in experiment [1] (37 g/ha); 3% in experiment [1] (111 g/ha); 43% in experiment [1] (333 g/ha); 67% in experiment [1] (1000 g/ha); 0% in experiment [3] (37 g/ha); 2% in experiment [3] (111 g/ha). In addition, the “% damage observed 16 DAT” value was 0% in experiment [3] (333 g/ha); 13% in experiment [3] (1000 g/ha); 66% in experiment [2] (37 g/ha); 57% in experiment [2] (111 g/ha); 57% in experiment [2] (333 g/ha); 54% in experiment [2] (1000 g/ha). For the same compound, the “Damage % 5 DAT” value in experiment [2] (10 g/ha, 5 DAT, wt plants) is 55% and 50% and 60%. In addition, the “percent damage at 6 DAT” value in experiment [2] (100 g/ha, reps) was 80% and 70%. The “ht (herbicidal damage)” value in experiment [2] (WT tobacco, 15 g/ha of mesotrione, 21 DAT) was 90 and 85 and 75.

For the compound `CC(C)C(=O)Oc1c(-c2c(F)ccc(Br)c2Cl)c(=O)n(CC(F)F)c2nccnc12` [Compound 2.30], the “% damage at 7 DAT” value in experiment [1] (150 gai/ha) was 90% and 70% and 80% (2×); in experiment [1] (300 gai/ha), 85%; in experiment [1] (450 gai/ha) it was 65% and 70% and 85% (2×); in experiment [2] (150 gai/ha), 75% and 80% and 85%; in experiment [2] (300 gai/ha), 75% and 70% and 80%; in experiment [2] (450 gai/ha), 70% (2×) and 75%. In addition, the “blch (% bleaching at the meristem relative to control plants)” value in experiment [3] (7 DAT) is 35% (5×) and 40% (5×) and 50% (2×) and 60% (2×) and 30% (6×) and 70% (2×) and 10% (2×); in experiment [3] (21 DAT) it was 0% (15×) and 90% (2×) and 70% (5×) and 50% (2×) and 65% and 45%; in experiment [2] (7 DAT, Arabidopsis HST section) it was 85% and 70% and 75% and 80%; in experiment [2] (7 DAT, wheat HPPD section), 85% and 70% and 75% and 80%; in experiment [2] (setting [6]), 85% and 70% and 75% and 80%. Besides, the “ht (% height reduction relative to control plants)” value in experiment [3] (7 DAT) is 50% (5×) and 60% (3×) and 90% (3×) and 70% (7×) and 40% (2×) and 30% (2×) and 20% (2×); in experiment [3] (21 DAT), 45% (2×) and 85% (3×) and 80% (2×) and 30% and 55% (3×) and 50% (5×) and 40% (3×) and 60% (2×) and 75% and 70% (2×) and 95% and 90%; in experiment [2] (7 DAT, Arabidopsis HST section), 80% and 85% and 75%; in experiment [2] (7 DAT, wheat HPPD section), 80% and 85% and 75%; in experiment [2] (setting [6]), 80% and 85% and 75%; in experiment [2] (21 DAT, wheat HPPD section), 95% and 90% and 75% and 80%. Also, the “ht (% height reduction relative to control plants)” value in experiment [2] (26 DAT, Arabidopsis HST section) is 95% and 90% and 75% and 80%; in experiment [2] (26 DAT, Chlamydomonas HST section), 95% and 90% and 75% and 80%. The “percent damage at 6 DAT” value in experiment [2] (150 g/ha, reps) is reported as 70%. For the same compound, in experiment [2] (Compound 2.30, 150 g/ha, 14 DAT, WT control, reps), the herbicide % damage was 60% and 70% and 75%. Moreover, the “blch: % bleaching at the meristem relative to control plants” value is 70% and 75% and 80% in experiment [2] (setting [7]); 80% and 70% and 75% in experiment [2] (setting [8]). Further, the “ht: % height reduction relative to control plants” value was 85% and 90% in experiment [2] (setting [7]); 90% and 85% in experiment [2] (setting [8]); 70% and 85% and 100% and 90% and 80% in experiment [2] (WT tobacco, spray with 500 g of compound 2.30, 26 DAT).
